This passage reports IC50 and inhibition results from patent US7579356B2, “Thia-tetraazaacenaphthylene kinase inhibitors” (Janssen Pharmaceutica NV, priority 2005, dated 2009).

pIC50: −log10 of the molar value. Bounds are passed on as bounds.

In experiment [1] the target is T1, HER-2 (Homo sapiens, UniProt P04626).
T1 construct: His6 with thrombin site (N); purchased Proqinase (Freiburg, Germany)
As to the kind of experiment: HER-2 Kinase Assay. The settings on record: value in parentheses. Type of experiment: biochemical. In short, it runs like this:
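Read-out was scintillation counting of 33P incorporated into biotinylated polyGluTyr captured on streptavidin plates. Reactions ran 1 h at 30 °C with GST-fused HER-2 residues 679–1255, 1 μM ATP, Mn2+ and Mg2+ at pH 7.5; data given as percent inhibition at 1 μM, with IC50 where determined.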

Experiment [2] has as its target T2, EGFR (Homo sapiens, UniProt P00533).
T2 construct: The intracellular portion of EGFR started at nucleotide 2189 (corresponding to amino acid 667) and ended at the termination codon; made in house; host or cells: Sf9 insect cells (baculovirus)
As to the kind of experiment: EGFR Kinase Assay. It counts as biochemical. The settings on record: for inhibition at 2 µM: test concentration of 2 μM, compounds without an IC50, read-out: EGFR inhibition in percent; for pIC50: GST-EGFR, ATP 5 μM. A digest of the protocol: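 Potency came from triplicate 16-point half-log titrations starting at 200 uM, with IC50 fitted from % inhibition against log concentration, or % inhibition at 2 μM otherwise. Reaction: Sf9-made GST–EGFR cytoplasmic region (aa 667 onward), biotin-polyGluTyr, 5 μM ATP with 33P tracer, pH 8.0 Tris/Mg/vanadate/DTT, 30 °C for 1 h; captured on streptavidin Flashplates and counted.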

T2 sequence (P00533 669-1210 limits assumed): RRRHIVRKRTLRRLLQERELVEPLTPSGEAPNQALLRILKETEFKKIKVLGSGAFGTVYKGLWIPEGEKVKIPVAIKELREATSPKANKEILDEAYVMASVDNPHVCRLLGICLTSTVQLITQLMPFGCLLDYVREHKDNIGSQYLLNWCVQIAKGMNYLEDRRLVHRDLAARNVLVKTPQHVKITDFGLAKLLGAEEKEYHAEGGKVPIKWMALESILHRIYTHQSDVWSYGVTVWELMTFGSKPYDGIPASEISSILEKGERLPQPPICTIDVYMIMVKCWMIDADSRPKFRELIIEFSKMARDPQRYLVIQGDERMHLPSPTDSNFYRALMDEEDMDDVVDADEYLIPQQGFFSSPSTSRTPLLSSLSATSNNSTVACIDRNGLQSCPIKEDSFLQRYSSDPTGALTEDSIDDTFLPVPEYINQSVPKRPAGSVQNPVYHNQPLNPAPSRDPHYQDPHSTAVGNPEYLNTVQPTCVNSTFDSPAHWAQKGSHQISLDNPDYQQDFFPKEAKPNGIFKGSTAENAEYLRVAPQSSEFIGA
T1 sequence (P04626 679-1255): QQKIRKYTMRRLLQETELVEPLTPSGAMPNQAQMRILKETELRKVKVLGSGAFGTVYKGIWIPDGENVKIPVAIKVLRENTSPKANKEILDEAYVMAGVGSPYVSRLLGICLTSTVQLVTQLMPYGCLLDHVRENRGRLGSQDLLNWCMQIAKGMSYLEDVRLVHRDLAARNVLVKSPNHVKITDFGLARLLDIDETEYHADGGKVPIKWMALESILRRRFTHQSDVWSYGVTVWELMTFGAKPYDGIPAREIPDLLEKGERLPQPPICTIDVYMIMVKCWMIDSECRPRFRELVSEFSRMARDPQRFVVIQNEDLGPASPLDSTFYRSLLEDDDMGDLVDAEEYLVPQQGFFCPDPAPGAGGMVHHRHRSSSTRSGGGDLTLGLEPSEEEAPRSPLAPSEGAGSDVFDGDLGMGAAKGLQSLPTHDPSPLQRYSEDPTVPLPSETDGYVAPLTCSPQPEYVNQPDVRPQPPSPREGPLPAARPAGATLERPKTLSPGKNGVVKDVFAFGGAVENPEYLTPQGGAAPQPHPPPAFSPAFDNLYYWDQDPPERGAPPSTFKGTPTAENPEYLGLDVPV

The pIC50 is the IC50 on a negative log10 scale, so that one unit is a factor of ten. A word on the inhibition: it is the percentage by which the read-out fell short of the control. For the molecule `CCOC(=O)C=Cc1ccc(NC(=O)c2sc3ncnc4c3c2NC(=O)N4c2ccc3nc(Cc4cccc(F)c4)[nH]c3c2)cc1` [Cpd 206, 3-[4-({5-[2-(3-fluoro-benzyl)-3H-benzoimidazol-5-yl]-4-oxo-4,5-dihydro-3H-1-thia-3,5,6,8-tetraaza-acenaphthylene-2-carbonyl}-amino)-phenyl]-acrylic acid ethyl ester], the negative-log IC50 (pIC50) in experiment [1] was roughly 4.00. The inhibition at 2 µM in experiment [2] came to 12%.

Consider `CCOc1cc(NC(=O)c2sc3ncnc4c3c2NC(=O)N4c2ccc(Oc3ccccc3)cc2)ccc1CN1CCOCC1` [Cpd 207, 4-oxo-5-(4-phenoxy-phenyl)-4,5-dihydro-3H-1-thia-3,5,6,8-tetraaza-acenaphthylene-2-carboxylic acid (3-ethoxy-4-morpholin-4-ylmethyl-phenyl)-amide], for which the values for the pIC50 in experiment [1] and in experiment [2] were 7.82 and 7.80, respectively.

With `O=C(Nc1ccc(CN2CCOCC2)cc1)c1sc2ncnc3c2c1NC(=O)N3c1ccc(Oc2cccnc2)c(Cl)c1` [Cpd 208, 5-[3-chloro-4-(pyridin-3-yloxy)-phenyl]-4-oxo-4,5-dihydro-3H-1-thia-3,5,6,8-tetraaza-acenaphthylene-2-carboxylic acid (4-morpholin-4-ylmethyl-phenyl)-amide], the pIC50 in experiment [1] is 7.24; in experiment [2] it was 6.88.

On to `O=C(Nc1ccc(CN2CCCCC2)cc1)c1sc2ncnc3c2c1NC(=O)N3c1ccc(Oc2cccnc2)c(Cl)c1` [Cpd 209, 5-[3-chloro-4-(pyridin-3-yloxy)-phenyl]-4-oxo-4,5-dihydro-3H-1-thia-3,5,6,8-tetraaza-acenaphthylene-2-carboxylic acid (4-piperidin-1-ylmethyl-phenyl)-amide], for which the figures for the pIC50 in experiment [1] and in experiment [2] were 7.14 and 7.00, respectively.

As to `CCOC(=O)c1sc2ncnc3c2c1NC(=O)N3c1ccc(Sc2ccccc2)cc1` [Cpd 210, 4-oxo-5-(4-phenylsulfanyl-phenyl)-4,5-dihydro-3H-1-thia-3,5,6,8-tetraaza-acenaphthylene-2-carboxylic acid ethyl ester], the pIC50 in experiment [1] was less than 5.00; in experiment [2], 6.21.

As for `CN1CCC(NC(=O)c2sc3ncnc4c3c2NC(=O)N4c2ccc(Oc3ccccc3)cc2)CC1` [Cpd 211, 4-oxo-5-(4-phenoxy-phenyl)-4,5-dihydro-3H-1-thia-3,5,6,8-tetraaza-acenaphthylene-2-carboxylic acid (1-methyl-piperidin-4-yl)-amide], the pIC50 in experiment [1] is 6.29; in experiment [2], 7.20.

Regarding `CN(C)CCCNC(=O)c1sc2ncnc3c2c1NC(=O)N3c1ccc(Sc2ccccc2)cc1` [Cpd 212, 4-oxo-5-(4-phenylsulfanyl-phenyl)-4,5-dihydro-3H-1-thia-3,5,6,8-tetraaza-acenaphthylene-2-carboxylic acid (3-dimethylamino-propyl)-amide], the pIC50 was 6.77 in experiment [1] and 7.44 in experiment [2].

For `O=C(c1sc2ncnc3c2c1NC(=O)N3c1ccc(Oc2ccccc2)cc1)N1CCN(CCN2CCOCC2)CC1` [Cpd 213, 2-[4-(2-morpholin-4-yl-ethyl)-piperazine-1-carbonyl]-5-(4-phenoxy-phenyl)-3H,5H-1-thia-3,5,6,8-tetraaza-acenaphthylen-4-one], the pIC50 in experiment [1] is less than 5.00. Moreover, the inhibition at 2 µM in experiment [2] stood at 48%.

For `CN1CCCN(C(=O)c2sc3ncnc4c3c2NC(=O)N4c2ccc(Oc3ccccc3)cc2)CC1` [Cpd 214, 2-(4-methyl-[1,4]diazepane-1-carbonyl)-5-(4-phenoxy-phenyl)-3H,5H-1-thia-3,5,6,8-tetraaza-acenaphthylen-4-one], the pIC50 in experiment [1] is less than 5.00; in experiment [2], 5.89.

Take `CN1CCN(NC(=O)c2sc3ncnc4c3c2NC(=O)N4c2ccc(Oc3ccccc3)cc2)CC1` [Cpd 215, 4-oxo-5-(4-phenoxy-phenyl)-4,5-dihydro-3H-1-thia-3,5,6,8-tetraaza-acenaphthylene-2-carboxylic acid (4-methyl-piperazin-1-yl)-amide]: the negative logarithm of the IC50 (pIC50) in experiment [1] was 5.35; in experiment [2], 6.92.

`CN1CCN(C(=O)c2sc3ncnc4c3c2NC(=O)N4c2ccc(Oc3ccccc3)cc2)CC1` [Cpd 216, 2-(4-methyl-piperazine-1-carbonyl)-5-(4-phenoxy-phenyl)-3H,5H-1-thia-3,5,6,8-tetraaza-acenaphthylen-4-one]: the pIC50 in experiment [1] was roughly 4.00; in experiment [2] it was 6.11.

For the molecule `O=C(NCCc1ccccn1)c1sc2ncnc3c2c1NC(=O)N3c1ccc(Oc2ccccc2)cc1` [Cpd 217, 4-oxo-5-(4-phenoxy-phenyl)-4,5-dihydro-3H-1-thia-3,5,6,8-tetraaza-acenaphthylene-2-carboxylic acid (2-pyridin-2-yl-ethyl)-amide], the pIC50 in experiment [1] was less than 4.00; in experiment [2], 6.65.

With `CN1CCN(Cc2ccc(NC(=O)c3sc4ncnc5c4c3NC(=O)N5c3ccc(Sc4ccccc4)cc3)cc2)CC1` [Cpd 218, 4-oxo-5-(4-phenylsulfanyl-phenyl)-4,5-dihydro-3H-1-thia-3,5,6,8-tetraaza-acenaphthylene-2-carboxylic acid [4-(4-methyl-piperazin-1-ylmethyl)-phenyl]-amide], the pIC50 is 7.14 in experiment [1] and 7.85 in experiment [2].

With `COc1cc(NC(=O)c2sc3ncnc4c3c2NC(=O)N4c2ccc(Sc3ccccc3)cc2)ccc1CN1CCOCC1` [Cpd 219, 4-oxo-5-(4-phenylsulfanyl-phenyl)-4,5-dihydro-3H-1-thia-3,5,6,8-tetraaza-acenaphthylene-2-carboxylic acid (3-methoxy-4-morpholin-4-ylmethyl-phenyl)-amide], the pIC50 in experiment [1] is 7.24; in experiment [2] it was 6.90.

On to `O=C(Nc1cccc(CN2CCOCC2)c1)c1sc2ncnc3c2c1NC(=O)N3c1ccc(Oc2ccccc2)cc1` [Cpd 220, 4-oxo-5-(4-phenoxy-phenyl)-4,5-dihydro-3H-1-thia-3,5,6,8-tetraaza-acenaphthylene-2-carboxylic acid (3-morpholin-4-ylmethyl-phenyl)-amide], for which the pIC50 in experiment [1] was 6.45; in experiment [2], 6.85.

Consider `O=C(Nc1ccc(CN2CCOCC2)c(Cl)c1)c1sc2ncnc3c2c1NC(=O)N3c1ccc(Oc2ccccc2)cc1` [Cpd 221, 4-oxo-5-(4-phenoxy-phenyl)-4,5-dihydro-3H-1-thia-3,5,6,8-tetraaza-acenaphthylene-2-carboxylic acid (3-chloro-4-morpholin-4-ylmethyl-phenyl)-amide], for which the pIC50 in experiment [1] is 6.95; in experiment [2], 7.07.

For `CCOC(=O)c1sc2ncnc3c2c1NC(=O)N3c1ccc(OCc2ccco2)c(Cl)c1` [Cpd 222, 5-[3-chloro-4-(furan-2-ylmethoxy)-phenyl]-4-oxo-4,5-dihydro-3H-1-thia-3,5,6,8-tetraaza-acenaphthylene-2-carboxylic acid ethyl ester], the pIC50 in experiment [1] was less than 4.00. The inhibition at 2 µM in experiment [2] was 4%.

Take `CCOC(=O)c1sc2ncnc3c2c1NC(=O)N3c1ccc(OCc2cccs2)c(Cl)c1` [Cpd 223, 5-[3-chloro-4-(thiophen-2-ylmethoxy)-phenyl]-4-oxo-4,5-dihydro-3H-1-thia-3,5,6,8-tetraaza-acenaphthylene-2-carboxylic acid ethyl ester]: in experiment [1], the pIC50 was less than 4.00. In experiment [2], the inhibition at 2 µM stood at 5%.

For `COc1cc(NC(=O)c2sc3ncnc4c3c2NC(=O)N4c2ccc(Sc3ccccc3)cc2)ccc1CN1CCCCC1` [Cpd 224, 4-oxo-5-(4-phenylsulfanyl-phenyl)-4,5-dihydro-3H-1-thia-3,5,6,8-tetraaza-acenaphthylene-2-carboxylic acid (3-methoxy-4-piperidin-1-ylmethyl-phenyl)-amide], the negative-log IC50 (pIC50) in experiment [1] is 7.57; in experiment [2] it was 7.85.

For the molecule `O=C(Nc1ccc(CN2CCOCC2)cc1)c1sc2ncnc3c2c1NC(=O)N3c1ccc(OCc2cccs2)c(Cl)c1` [Cpd 226, 5-[3-chloro-4-(thiophen-2-ylmethoxy)-phenyl]-4-oxo-4,5-dihydro-3H-1-thia-3,5,6,8-tetraaza-acenaphthylene-2-carboxylic acid (4-morpholin-4-ylmethyl-phenyl)-amide], the pIC50 in experiment [1] is 7.57; in experiment [2] it was 7.48.

As to `O=C(Nc1ccc(CN2CCCCC2)cc1)c1sc2ncnc3c2c1NC(=O)N3c1ccc(OCc2cccs2)c(Cl)c1` [Cpd 227, 5-[3-chloro-4-(thiophen-2-ylmethoxy)-phenyl]-4-oxo-4,5-dihydro-3H-1-thia-3,5,6,8-tetraaza-acenaphthylene-2-carboxylic acid (4-piperidin-1-ylmethyl-phenyl)-amide], the figures for the negative logarithm of the IC50 (pIC50) in experiment [1] and in experiment [2] were 7.48 and 7.72, respectively.

As for `COc1cc(NC(=O)c2sc3ncnc4c3c2NC(=O)N4c2ccc(OCc3cccs3)c(Cl)c2)ccc1CN1CCCCC1` [Cpd 228, 5-[3-chloro-4-(thiophen-2-ylmethoxy)-phenyl]-4-oxo-4,5-dihydro-3H-1-thia-3,5,6,8-tetraaza-acenaphthylene-2-carboxylic acid (3-methoxy-4-piperidin-1-ylmethyl-phenyl)-amide], the results for the pIC50 in experiment [1] and in experiment [2] were 7.48 and 7.77, respectively.

Consider `COc1cc(NC(=O)c2sc3ncnc4c3c2NC(=O)N4c2ccc(OCc3cccs3)c(Cl)c2)ccc1CN1CCOCC1` [Cpd 229, 5-[3-chloro-4-(thiophen-2-ylmethoxy)-phenyl]-4-oxo-4,5-dihydro-3H-1-thia-3,5,6,8-tetraaza-acenaphthylene-2-carboxylic acid (3-methoxy-4-morpholin-4-ylmethyl-phenyl)-amide], for which the pIC50 in experiment [1] is 7.77; in experiment [2] it was 7.48.
